Read-outs that look alike come from different tables or passages of the source.
What was measured:
[1] = tested on: Dahl salt-sensitive rats; details: rat, in vivo; cited from earlier work
[2] = tested on: neointimal formation in rats; details: cited from earlier work
[3] = tested on: spontaneously hypertensive rat, renal hypertensive rat and deoxycortisone acetate salt hypertensive rat models; details: cited from earlier work
[4] = tested on: porcine model of IL-1 beta-induced coronary stenosis; details: long term treatment; cited from earlier work
[5] = tested on: rat stroke model; details: in vivo; cited from earlier work
[6] = target: ROCK2 (Homo sapiens (Human), UniProt O75116);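 also: rho kinase enzyme reaction halted with EDTA, phospho- and non-phospho peptide separated for read-out, kinase activity inhibition derived across a dose-response series, DMSO under 2%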
Chain of ROCK2 (O75116 whole entry, species assumed): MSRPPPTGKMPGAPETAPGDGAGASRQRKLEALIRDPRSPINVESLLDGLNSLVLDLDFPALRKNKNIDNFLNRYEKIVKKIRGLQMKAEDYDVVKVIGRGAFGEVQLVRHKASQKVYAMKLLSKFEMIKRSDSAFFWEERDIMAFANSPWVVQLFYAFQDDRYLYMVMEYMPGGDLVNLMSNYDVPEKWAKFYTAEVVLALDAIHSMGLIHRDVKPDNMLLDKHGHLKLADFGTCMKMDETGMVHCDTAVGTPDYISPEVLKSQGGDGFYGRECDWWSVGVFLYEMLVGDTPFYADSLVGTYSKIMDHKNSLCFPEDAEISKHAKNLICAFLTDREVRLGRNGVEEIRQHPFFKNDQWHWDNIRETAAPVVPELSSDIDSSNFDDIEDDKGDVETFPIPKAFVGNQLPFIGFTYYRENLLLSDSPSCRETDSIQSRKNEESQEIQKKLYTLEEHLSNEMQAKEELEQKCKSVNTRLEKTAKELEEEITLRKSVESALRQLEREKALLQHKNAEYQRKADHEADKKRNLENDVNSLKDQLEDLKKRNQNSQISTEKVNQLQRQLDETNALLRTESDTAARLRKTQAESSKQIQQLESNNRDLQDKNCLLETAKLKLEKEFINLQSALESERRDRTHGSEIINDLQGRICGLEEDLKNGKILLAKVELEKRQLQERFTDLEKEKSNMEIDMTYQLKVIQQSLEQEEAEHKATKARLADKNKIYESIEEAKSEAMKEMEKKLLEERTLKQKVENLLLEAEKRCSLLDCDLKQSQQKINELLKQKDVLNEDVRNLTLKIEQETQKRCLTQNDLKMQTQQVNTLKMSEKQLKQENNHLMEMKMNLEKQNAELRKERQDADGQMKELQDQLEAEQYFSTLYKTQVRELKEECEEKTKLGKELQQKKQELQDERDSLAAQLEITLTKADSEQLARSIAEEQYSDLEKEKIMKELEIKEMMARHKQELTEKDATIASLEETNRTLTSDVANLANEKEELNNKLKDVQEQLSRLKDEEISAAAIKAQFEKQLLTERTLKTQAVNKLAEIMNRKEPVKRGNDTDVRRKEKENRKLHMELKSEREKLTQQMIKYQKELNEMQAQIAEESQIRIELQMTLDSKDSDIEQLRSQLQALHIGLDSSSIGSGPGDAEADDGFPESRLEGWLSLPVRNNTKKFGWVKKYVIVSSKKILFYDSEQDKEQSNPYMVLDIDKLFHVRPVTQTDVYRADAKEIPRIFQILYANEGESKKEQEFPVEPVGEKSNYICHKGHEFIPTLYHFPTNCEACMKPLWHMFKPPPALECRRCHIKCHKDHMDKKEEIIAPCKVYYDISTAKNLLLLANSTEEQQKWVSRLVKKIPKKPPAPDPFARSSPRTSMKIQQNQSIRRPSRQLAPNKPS

Row | Structure (SMILES) | IC50 [6] [nM] | other results
1 | C[C@@H](N)[C@H]1CC[C@H](C(=O)Nc2ccncc2)CC1 [Example Y-27632] | – | ventricular hypertrophy, fibrosis and function [1]: improve ventricular hypertrophy, fibrosis and function; neointimal formation [2]: inhibited neointimal formation; blood pressure ([3]; control rats): only a minor effect on blood pressure; blood pressure ([3]; three rat models of hypertension): significantly decrease blood pressure
2 | O=S(=O)(c1cccc2cnccc12)N1CCCNCC1 [fasudil] | – | coronary constrictive remodeling [4]: promote a regression of coronary constrictive remodeling; coronary stenosis [4]: progressively reduce coronary stenosis; infarct size and neurologic deficit [5]: reduce both the infarct size and neurologic deficit
3 | CCc1cc(N2CCC(Nc3cccc(OC)c3)C2=O)ncc1-c1cn[nH]c1 (single isomer, unassigned) [Example 204, 1-(4-ethyl-5-(1H-pyrazol-4-yl)pyridin-2-yl)-3-((3-methoxyphenyl)amino) pyrrolidin-2-one] | 100 to 2200 | –
4 | O=C1C(Nc2cccc(OC(F)F)c2)CCN1c1ccc(-c2cn[nH]c2)c(F)c1 (single isomer, unassigned) [Example 356, 3-((3-(difluoromethoxy)phenyl)amino)-1-(3-fluoro-4-(1H-pyrazol-4-yl)phenyl) pyrrolidin-2-one] | 10 to 100 | –
5 | COc1cccc(NC2CCN(c3ccc(-c4cn[nH]c4)c(OC)n3)C2=O)c1 (single isomer, unassigned) [Example 197, 1-(6-methoxy-5-(1H-pyrazol-4-yl)pyridin-2-yl)-3-((3-methoxyphenyl)amino) pyrrolidin-2-one] | < 10 | –
6 | COc1cc(F)cc(NC2CCN(c3ccc(-c4cn[nH]c4)cc3F)C2=O)c1 (single isomer, unassigned) [Example 339, 1-(2-fluoro-4-(1H-pyrazol-4-yl)phenyl)-3-((3-fluoro-5-methoxyphenyl)amino) pyrrolidin-2-one] | 10 to 100 | –
7 | COc1cc(F)cc(NC2CCN(c3ccc(-c4cn[nH]c4)c(Cl)c3)C2=O)c1 (single isomer, unassigned) [Example 159, 1-(3-chloro-4-(1H-pyrazol-4-yl)phenyl)-3 ((3-fluoro-5-methoxyphenyl)amino) pyrrolidin-2-one] | 100 to 2200 | –
8 | CCOc1cccc(NC2CCN(c3ccc(-c4cn[nH]c4)c(OC)n3)C2=O)c1 (single isomer, unassigned) [Example 219, 3-((3-ethoxyphenyl)amino)-1-(6-methoxy-5-(1H-pyrazol-4-yl)pyridin-2-yl)pyrrolidin-2-one] | < 10 | –
9 | CCOc1cc(N2CCC(Nc3ccc(F)c(OC)c3)C2=O)ccc1-c1cn[nH]c1 (single isomer, unassigned) [Example 39, 1-(3-ethoxy-4-(1H-pyrazol-4-yl)phenyl)-3-((4-fluoro-3-methoxyphenyl)amino)pyrrolidin-2-one] | 10 to 100 | –
10 | COc1cccc(NC2CCN(c3ccc(-c4cn[nH]c4)cn3)C2=O)c1 (single isomer, unassigned) [Example 86, 1-(5-(1H-pyrazol-4-yl)pyridin-2-yl)-3-((3-methoxyphenyl)amino)pyrrolidin-2-one] | < 10 | –
11 | COc1cc(F)cc(NC2CCN(c3ccc(-c4cn[nH]c4)cc3Cl)C2=O)c1 (single isomer, unassigned) [Example 169, 1-(2-chloro-4-(1H-pyrazol-4-yl)phenyl)-3 ((3-fluoro-5-methoxyphenyl)amino) pyrrolidin-2-one] | 100 to 2200 | –
12 | COc1nc(N2CCC(Nc3cccc(OCC4CC4)c3)C2=O)ccc1-c1cn[nH]c1 (single isomer, unassigned) [Example 215, 3-((3-(cyclopropylmethoxy)phenyl)amino)-1-(6-methoxy-5-(1H-pyrazol-4-yl)pyridin-2-yl)pyrrolidin-2-one] | < 10 | –
13 | COc1cc(NC2CCN(c3ccc(-c4cn[nH]c4)c(F)c3)C2=O)ccc1F (single isomer, unassigned) [Example 333, 3-((4-fluoro-3-methoxyphenyl)amino)-1-(3-fluoro-4-(1H-pyrazol-4-yl)phenyl) pyrrolidin-2-one] | < 10 | –
14 | COc1ccc(N[C@@H]2CCN(c3ccc(-c4cn[nH]c4)cc3)C2=O)c(OC)c1 [Example 395, (R)-1-(4-(1H-pyrazol-4-yl)phenyl)-3-((2,4-dimethoxyphenyl)amino)pyrrolidin-2-one] | 100 to 2200 | –
15 | COc1ccc(NC2CCN(c3ccc(-c4cn[nH]c4)cc3)C2=O)c(F)c1 (single isomer, unassigned) [Example 20, 1-(4-(1H-pyrazol-4-yl)phenyl)-3-((2-fluoro-4-methoxyphenyl)amino)pyrrolidin-2-one] | 100 to 2200 | –
16 | COc1cccc(NC2CCN(c3cc(F)c(-c4cn[nH]c4)c(F)c3)C2=O)c1 (single isomer, unassigned) [Example 312, 1-(3,5-difluoro-4-(1H-pyrazol-4-yl)phenyl)-3-((3-methoxyphenyl)amino)pyrrolidin-2-one] | < 10 | –
17 | COc1ccc(F)c(NC2CCN(c3ccc(-c4cn[nH]c4)c(F)c3)C2=O)c1 (single isomer, unassigned) [Example 335, 1-(3-fluoro-4-(1H-pyrazol-4-yl)phenyl)-3-((2-fluoro-5-methoxyphenyl)amino) pyrrolidin-2-one] | 10 to 100 | –
18 | COc1cc(F)cc(NC2CCN(c3ccc(-c4cn[nH]c4)c(F)c3)C2=O)c1 (single isomer, unassigned) [Example 50, 1-(3-fluoro-4-(1 H-pyrazol-4-yl)phenyl)-3-((3-fluoro-5-methoxyphenyl)amino)pyrrolidin-2-one] | < 10 | –
19 | COc1cccc(NC2CCN(c3cc(F)c(-c4cn[nH]c4)cc3F)C2=O)c1 (single isomer, unassigned) [Example 354, 1-(2,5-difluoro-4-(1H-pyrazol-4-yl)phenyl)-3-((3-methoxyphenyl)amino)pyrrolidin-2-one] | 10 to 100 | –
